{
  "source": "paper PMC4765731",
  "about": "(Anticancer research, 2015)",
  "key": {"[1]": {"system": "human lung (A549) cancer cell line", "assay": "Cell viability, crystal violet dye binding assay, A549", "type": "cell-based"}, "A549 cells [2]": {"system": "A549 cells", "assay": "Mitochondrial membrane potential", "type": "cell-based, human", "settings": "rhodamine-123"}, "A549 cells [3]": {"system": "A549 cells", "assay": "ROS production, DCFDA dye", "type": "cell-based, human", "settings": "30 min"}, "[4]": {"settings": "Homo sapiens, A549, 48 h, read-out: CC50 (cytotoxic concentration), A549, A549, 48 h exposure, crystal violet, mean ± SD"}, "[5]": {"settings": "read-out: CC50 (cytotoxic concentration), A549, A549, 48 h exposure, crystal violet, mean ± SD"}},
  "note": "Like-named read-outs stand apart in the source and are kept apart here.",
  "data": [
    {"smiles": "CC(=O)Oc1ccc(-c2cc3ccc(OC(C)=O)c(OC(C)=O)c3oc2=O)cc1", "note": "[Compound 6, 8-(acetyloxy)-3-[4-(acetyloxy)phenyl]-2-oxo-2H-chromen-7-yl acetate]", "values": [
      {"measurement": "CC50", "setting": "[1]; [4]", "result": 75.2, "unit": "µM"},
      {"measurement": "CC50", "setting": "[1]; [5]", "result": "75.9 ± 0.65", "unit": "µM"}
    ]},
    {"smiles": "CC(=O)Oc1ccc2cc(-c3ccc(S(C)(=O)=O)cc3)c(=O)oc2c1OC(C)=O", "note": "[Compound 7, 8-(acetyloxy)-3-(4-methanesulfonylphenyl)-2-oxo-2H-chromen-7-yl acetate]", "values": [
      {"measurement": "fold decrease in potency compared to docetaxel (CC50, A549)", "setting": "[1]; A549, 48 h, 7 vs docetaxel", "result": 2.5, "unit": "fold"},
      {"measurement": "CC50", "setting": "[1]; [5]", "result": "24.2 ± 0.7", "unit": "µM"},
      {"measurement": "MMP fluorescence intensity in comparison to untreated control (100%)", "setting": "A549 cells [2]; A549, 10 μM", "result": 96.4, "unit": "%"},
      {"measurement": "MMP fluorescence intensity in comparison to untreated control (100%)", "setting": "A549 cells [2]; A549, 25 μM", "result": 94.8, "unit": "%"},
      {"measurement": "MMP fluorescence intensity in comparison to untreated control (100%)", "setting": "A549 cells [2]; A549, 50 μM", "result": 93.4, "unit": "%"},
      {"measurement": "MMP fluorescence intensity in comparison to untreated control (100%)", "setting": "A549 cells [2]; A549, 75 μM", "result": 92.9, "unit": "%"},
      {"measurement": "MMP fluorescence intensity in comparison to untreated control (100%)", "setting": "A549 cells [2]; A549, 100 μM", "result": 81.7, "unit": "%"},
      {"measurement": "ROS fluorescence intensity in comparison to untreated control (100%)", "setting": "A549 cells [3]; A549, 10 μM", "result": 107.1, "unit": "%"},
      {"measurement": "ROS fluorescence intensity in comparison to untreated control (100%)", "setting": "A549 cells [3]; A549, 25 μM", "result": 129.0, "unit": "%"},
      {"measurement": "ROS fluorescence intensity in comparison to untreated control (100%)", "setting": "A549 cells [3]; A549, 50 μM", "result": 136.6, "unit": "%"},
      {"measurement": "ROS fluorescence intensity in comparison to untreated control (100%)", "setting": "A549 cells [3]; A549, 75 μM", "result": 146.0, "unit": "%"},
      {"measurement": "ROS fluorescence intensity in comparison to untreated control (100%)", "setting": "A549 cells [3]; A549, 100 μM", "result": 231.2, "unit": "%"}
    ]},
    {"smiles": "CS(=O)(=O)c1ccc(-c2cc3ccccc3oc2=O)cc1", "note": "[Compound 9, 3-(4-methanesulfonylphenyl)-2H-chromen-2-one]", "values": [
      {"measurement": "CC50", "setting": "[1]; [4]", "result": "> 100", "unit": "µM"}
    ]},
    {"smiles": "CC(=O)Oc1ccc(-c2c(C)c3ccccc3oc2=O)cc1", "note": "[Compound 10, 4-(4-methyl-2-oxo-2H-chromen-3-yl)phenyl acetate]", "values": [
      {"measurement": "CC50", "setting": "[1]; [4]", "result": "> 100", "unit": "µM"}
    ]},
    {"smiles": "Cc1c(-c2ccc(S(C)(=O)=O)cc2)c(=O)oc2ccccc12", "note": "[Compound 11, 3-(4-methanesulfonylphenyl)-4-methyl-2H-chromen-2-one]", "values": [
      {"measurement": "CC50", "setting": "[1]; [4]", "result": "> 100", "unit": "µM"}
    ]},
    {"smiles": "CC(=O)O[C@@]12CO[C@@H]1C[C@H](O)[C@@]1(C)C(=O)[C@H](O)C3=C(C)[C@@H](OC(=O)[C@H](O)[C@@H](NC(=O)OC(C)(C)C)c4ccccc4)C[C@@](O)([C@@H](OC(=O)c4ccccc4)[C@H]21)C3(C)C", "note": "[Docetaxel, reference compound]", "values": [
      {"measurement": "CC50", "setting": "[1]; [4]", "result": 9.47, "unit": "µM"},
      {"measurement": "CC50", "setting": "[1]; [5]", "result": "9.4 ± 0.07", "unit": "µM"}
    ]}
  ]
}
